# Data taken from patent publication US10681909B2, “Herbicidal triazoles” (FMC Corporation, priority 2014, dated 2020).
# Legend:
# [1] = tested on: barnyardgrass; test: Test A postemergence; type: in vivo, Echinochloa crus-galli; settings: 0 to 100 scale (0 no effect, 100 complete control), approx. 10 d
# Procedure, shortened: (§1)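 Test chemicals, formulated in a surfactant-containing non-phytotoxic solvent mixture, are applied either as a directed soil spray to newly planted seeds or as a postemergence application to plants at the one- to two-leaf stage (2–10 cm). All plants grow in a loam soil and sand blend.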
# [2] = tested on: foxtail, giant; test: Test A postemergence; type: in vivo, Setaria faberii; settings: 0 to 100 scale (0 no effect, 100 complete control), approx. 10 d
# Procedure, shortened: as §1
# [3] = tested on: pigweed; test: Test A postemergence; type: in vivo, Amaranthus retroflexus; settings: 0 to 100 scale (0 no effect, 100 complete control), approx. 10 d
# Procedure, shortened: as §1
# [4] = tested on: corn; test: Test A postemergence; type: in vivo, Zea mays; settings: 0 to 100 scale (0 no effect, 100 complete control), approx. 10 d
# Procedure, shortened: as §1
# [5] = tested on: rice; test: Test B flooded paddy test; type: in vivo, Oryza sativa; settings: 250 g ai/ha, applied to paddy water at 2-leaf stage, visual rating after 13 to 15 d, scale 0 (no effect) to 100 (complete control)
# Procedure, shortened: (§2)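 Pots were flooded to 3 cm above the soil at treatment, and compounds were applied directly into the paddy water. That depth was held throughout. After 13 to 15 d in a greenhouse, plants were rated visually against untreated controls.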
# [6] = tested on: sedge, umbrella; test: Test B flooded paddy test; type: in vivo, Cyperus difformis; settings: 250 g ai/ha, applied to paddy water at 2-leaf stage, visual rating after 13 to 15 d, scale 0 (no effect) to 100 (complete control)
# Procedure, shortened: as §2
# [7] = tested on: ducksalad; test: Test B flooded paddy test; type: in vivo, Heteranthera limosa; settings: 250 g ai/ha, applied to paddy water at 2-leaf stage, visual rating after 13 to 15 d, scale 0 (no effect) to 100 (complete control)
# Procedure, shortened: as §2
# [8] = tested on: barnyardgrass; test: Test B flooded paddy test; type: in vivo, Echinochloa crus-galli; settings: 250 g ai/ha, applied to paddy water at 2-leaf stage, visual rating after 13 to 15 d, scale 0 (no effect) to 100 (complete control)
# Procedure, shortened: as §2
# [9] = tested on: ryegrass, Italian; test: Test C postemergence; type: in vivo, Lolium multiflorum
# Procedure, shortened: (§3)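 Preemergence: seeds sown in loam soil–sand blend and treated with test chemicals formulated in a non-phytotoxic solvent mixture containing a surfactant. Postemergence: plants grown in peat moss/vermiculite-based medium and sprayed with the same formulation at 2 to 18 cm height (1- to 4-leaf stage).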
# [10] = tested on: wheat (winter wheat); test: Test C postemergence; type: in vivo, Triticum aestivum
# Procedure, shortened: as §3
# [11] = tested on: galium; test: Test C postemergence; type: in vivo, Galium aparine
# Procedure, shortened: as §3
# [12] = tested on: corn; test: Test C postemergence; type: in vivo, Zea mays
# Procedure, shortened: as §3
# [13] = tested on: foxtail, giant; test: Test C postemergence; type: in vivo, Setaria faberii
# Procedure, shortened: as §3
# [14] = tested on: johnsongrass; test: Test C postemergence; type: in vivo, Sorghum halepense
# Procedure, shortened: as §3
# [15] = tested on: lambsquarters; test: Test C postemergence; type: in vivo, Chenopodium album
# Procedure, shortened: as §3
# [16] = tested on: nutsedge, yellow; test: Test C postemergence; type: in vivo, Cyperus esculentus
# Procedure, shortened: as §3
# [17] = tested on: pigweed; test: Test C postemergence; type: in vivo, Amaranthus retroflexus
# Procedure, shortened: as §3
# [18] = tested on: ragweed; test: Test C postemergence; type: in vivo, Ambrosia elatior
# Procedure, shortened: as §3
# [19] = tested on: oilseed rape; test: Test C postemergence; type: in vivo, Brassica napus; settings: Oilseed Rape
# Procedure, shortened: as §3
# [20] = tested on: chickweed; test: Test C postemergence; type: in vivo, Stellaria media
# Procedure, shortened: as §3
# [21] = tested on: oat, wild; test: Test C postemergence; type: in vivo, Avena fatua
# Procedure, shortened: as §3
structure (smiles),measurement,setting,value
CCOc1nc(-c2ccc(Cl)cc2)nn1Cc1ccnc(C(F)(F)F)c1 [Compound 26],"Plant response rating, Barnyardgrass",[1]; 31 g ai/ha,40
same,"Plant response rating, Barnyardgrass",[1]; 125 g ai/ha,70
same,"Plant response rating, Foxtail, Giant",[2]; 31 g ai/ha,70
same,"Plant response rating, Foxtail, Giant",[2]; 125 g ai/ha,90
same,"Plant response rating, Pigweed",[3]; 31 g ai/ha,80
same,"Plant response rating, Pigweed",[3]; 125 g ai/ha,100
same,"Plant response rating, Corn",[4]; 31 g ai/ha,30
same,"Plant response rating, Corn",[4]; 125 g ai/ha,40
same,"Plant response rating, Rice, Flood",[5],45
same,"Plant response rating, Sedge, Umbrella, Flood",[6],90
same,"Plant response rating, Ducksalad, Flood",[7],70
same,"Plant response rating, Barnyardgrass, Flood",[8],50
same,Plant response rating (scale of 0 to 100 where 0 is no effect and 100 is complete control),[9]; 16 g ai/ha,20
same,Plant response rating (scale of 0 to 100 where 0 is no effect and 100 is complete control),[9]; 31 g ai/ha,35
same,Plant response rating (scale of 0 to 100 where 0 is no effect and 100 is complete control),[9]; 62 g ai/ha,35
same,Plant response rating (scale of 0 to 100 where 0 is no effect and 100 is complete control),[9]; 125 g ai/ha,40
same,Plant response rating (scale of 0 to 100 where 0 is no effect and 100 is complete control),[10]; 16 g ai/ha,5
same,Plant response rating (scale of 0 to 100 where 0 is no effect and 100 is complete control),[10]; 31 g ai/ha,10
same,Plant response rating (scale of 0 to 100 where 0 is no effect and 100 is complete control),[10]; 62 g ai/ha,10
same,Plant response rating (scale of 0 to 100 where 0 is no effect and 100 is complete control),[10]; 125 g ai/ha,10
same,Plant response rating (scale of 0 to 100 where 0 is no effect and 100 is complete control),[11]; 16 g ai/ha,80
same,Plant response rating (scale of 0 to 100 where 0 is no effect and 100 is complete control),[11]; 31 g ai/ha,90
same,Plant response rating (scale of 0 to 100 where 0 is no effect and 100 is complete control),[11]; 62 g ai/ha,90
same,Plant response rating (scale of 0 to 100 where 0 is no effect and 100 is complete control),[11]; 125 g ai/ha,90
same,Plant response rating (scale of 0 to 100 where 0 is no effect and 100 is complete control),[12]; 16 g ai/ha,25
same,Plant response rating (scale of 0 to 100 where 0 is no effect and 100 is complete control),[12]; 31 g ai/ha,25
same,Plant response rating (scale of 0 to 100 where 0 is no effect and 100 is complete control),[12]; 62 g ai/ha,30
same,Plant response rating (scale of 0 to 100 where 0 is no effect and 100 is complete control),[12]; 125 g ai/ha,35
same,Plant response rating (scale of 0 to 100 where 0 is no effect and 100 is complete control),[13]; 16 g ai/ha,10
same,Plant response rating (scale of 0 to 100 where 0 is no effect and 100 is complete control),[13]; 31 g ai/ha,20
same,Plant response rating (scale of 0 to 100 where 0 is no effect and 100 is complete control),[13]; 62 g ai/ha,25
same,Plant response rating (scale of 0 to 100 where 0 is no effect and 100 is complete control),[13]; 125 g ai/ha,40
same,Plant response rating (scale of 0 to 100 where 0 is no effect and 100 is complete control),[14]; 16 g ai/ha,25
same,Plant response rating (scale of 0 to 100 where 0 is no effect and 100 is complete control),[14]; 31 g ai/ha,20
same,Plant response rating (scale of 0 to 100 where 0 is no effect and 100 is complete control),[14]; 62 g ai/ha,35
same,Plant response rating (scale of 0 to 100 where 0 is no effect and 100 is complete control),[14]; 125 g ai/ha,55
same,Plant response rating (scale of 0 to 100 where 0 is no effect and 100 is complete control),[15]; 16 g ai/ha,100
same,Plant response rating (scale of 0 to 100 where 0 is no effect and 100 is complete control),[15]; 31 g ai/ha,100
same,Plant response rating (scale of 0 to 100 where 0 is no effect and 100 is complete control),[15]; 62 g ai/ha,100
same,Plant response rating (scale of 0 to 100 where 0 is no effect and 100 is complete control),[15]; 125 g ai/ha,100
same,Plant response rating (scale of 0 to 100 where 0 is no effect and 100 is complete control),[16]; 16 g ai/ha,15
same,Plant response rating (scale of 0 to 100 where 0 is no effect and 100 is complete control),[16]; 31 g ai/ha,25
same,Plant response rating (scale of 0 to 100 where 0 is no effect and 100 is complete control),[16]; 62 g ai/ha,30
same,Plant response rating (scale of 0 to 100 where 0 is no effect and 100 is complete control),[16]; 125 g ai/ha,20
same,Plant response rating (scale of 0 to 100 where 0 is no effect and 100 is complete control),[17]; 16 g ai/ha,95
same,Plant response rating (scale of 0 to 100 where 0 is no effect and 100 is complete control),[17]; 31 g ai/ha,95
same,Plant response rating (scale of 0 to 100 where 0 is no effect and 100 is complete control),[17]; 62 g ai/ha,98
same,Plant response rating (scale of 0 to 100 where 0 is no effect and 100 is complete control),[17]; 125 g ai/ha,98
same,Plant response rating (scale of 0 to 100 where 0 is no effect and 100 is complete control),[18]; 16 g ai/ha,85
same,Plant response rating (scale of 0 to 100 where 0 is no effect and 100 is complete control),[18]; 31 g ai/ha,90
same,Plant response rating (scale of 0 to 100 where 0 is no effect and 100 is complete control),[18]; 62 g ai/ha,70
same,Plant response rating (scale of 0 to 100 where 0 is no effect and 100 is complete control),[18]; 125 g ai/ha,85
same,Plant response rating (scale of 0 to 100 where 0 is no effect and 100 is complete control),[19]; 16 g ai/ha,90
same,Plant response rating (scale of 0 to 100 where 0 is no effect and 100 is complete control),[19]; 31 g ai/ha,98
same,Plant response rating (scale of 0 to 100 where 0 is no effect and 100 is complete control),[19]; 62 g ai/ha,90
same,Plant response rating (scale of 0 to 100 where 0 is no effect and 100 is complete control),[19]; 125 g ai/ha,95
same,Plant response rating (scale of 0 to 100 where 0 is no effect and 100 is complete control),[20]; 16 g ai/ha,90
same,Plant response rating (scale of 0 to 100 where 0 is no effect and 100 is complete control),[20]; 31 g ai/ha,95
same,Plant response rating (scale of 0 to 100 where 0 is no effect and 100 is complete control),[20]; 62 g ai/ha,95
same,Plant response rating (scale of 0 to 100 where 0 is no effect and 100 is complete control),[20]; 125 g ai/ha,95
same,Plant response rating (scale of 0 to 100 where 0 is no effect and 100 is complete control),[21]; 16 g ai/ha,35
same,Plant response rating (scale of 0 to 100 where 0 is no effect and 100 is complete control),[21]; 31 g ai/ha,35
same,Plant response rating (scale of 0 to 100 where 0 is no effect and 100 is complete control),[21]; 62 g ai/ha,40
same,Plant response rating (scale of 0 to 100 where 0 is no effect and 100 is complete control),[21]; 125 g ai/ha,45
